{"source": "paper PMC9814548", "about": "“Chemoenzymatic synthesis of 3-ethyl-2,5-dimethylpyrazine by L-threonine 3-dehydrogenase and 2-amino-3-ketobutyrate CoA ligase/L-threonine aldolase” (Communications Chemistry, 2021)", "target": "T1, CnKBL (Cupriavidus necator, UniProt Q0K313, H138F)", "T1 construct": "gene kbl; gene cloned in pET-28a (NcoI/XhoI), E. coli BL21(DE3), Ni-Sepharose and gel filtration; dimer; PLP on K246", "T1 sequence (Q0K313 entry or part of it H138F)": "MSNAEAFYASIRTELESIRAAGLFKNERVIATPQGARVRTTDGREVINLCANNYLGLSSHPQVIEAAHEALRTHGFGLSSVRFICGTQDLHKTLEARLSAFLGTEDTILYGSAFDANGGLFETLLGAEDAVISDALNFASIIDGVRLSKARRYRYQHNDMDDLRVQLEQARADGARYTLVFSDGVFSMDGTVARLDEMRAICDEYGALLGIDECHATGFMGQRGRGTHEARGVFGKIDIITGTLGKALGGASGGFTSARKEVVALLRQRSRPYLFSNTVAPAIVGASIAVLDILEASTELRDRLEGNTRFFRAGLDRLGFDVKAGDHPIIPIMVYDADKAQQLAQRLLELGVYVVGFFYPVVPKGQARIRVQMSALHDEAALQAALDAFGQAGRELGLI", "assay": "threonine aldolase activity, coupled alcohol dehydrogenase assay", "format": "biochemical", "settings": "TA activity not detectable", "data": [{"compound": "C[C@@H](O)[C@H](N)C(=O)O", "note": "[L-Thr]", "values": [{"measurement": "threonine aldolase activity, coupled alcohol dehydrogenase assay", "value": "TA activity of the H138F variant decreased to an undetectable level compared with CnKBL(WT)"}]}]}
